This is an account of results in PubChem BioAssay (NCI).

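Tested at 5 concentrations; 48 h exposure; 96-well plates; endpoints linearly interpolated, else capped at highest concentration. TGI: concentration producing complete growth inhibition.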

Some test systems named below: HL-60(TB) leukemia; HOP-62 NSCLC; KM12 colon; OVCAR-4 ovarian; SF-268 CNS; SK-MEL-5 melanoma; SK-OV-3 ovarian; SNB-19 CNS; SNB-75 CNS; UACC-62 melanoma.
What all share (assay): NCI tumour cell line growth inhibition, 48 h

For `O=C(CCN1CC2CCC(CC2)C1)c1cccs1`, the TGI was 44.3 µM with HL-60(TB) leukemia; 45.5 µM with HOP-62 NSCLC; 40.7 µM in the assay with KM12 colon; greater than 74.6 µM in the assay with OVCAR-4 ovarian; 44.3 µM in the assay on SF-268 CNS; greater than 100 µM in the assay with SK-MEL-5 melanoma. Further, the TGI in the assay on SK-OV-3 ovarian is greater than 53.4 µM; with SNB-19 CNS it was greater than 100 µM; in the assay on SNB-75 CNS, 35 µM; in the assay on UACC-62 melanoma it was 31.9 µM.
On to `CS(=O)(=O)c1nc(-c2cc3c(c(S(C)(=O)=O)n2)CCCC3)cc2c1CCCC2`, for which the TGI with HL-60(TB) leukemia was greater than 100 µM; in the assay on HOP-62 NSCLC it was greater than 57.7 µM; in the assay with KM12 colon, greater than 100 µM; in the assay with OVCAR-4 ovarian it was greater than 100 µM; with SF-268 CNS, greater than 47.3 µM; in the assay with SK-MEL-5 melanoma, greater than 100 µM. Further, the TGI with SK-OV-3 ovarian is greater than 64.7 µM; in the assay on SNB-19 CNS it was greater than 100 µM; in the assay on SNB-75 CNS it was 25.3 µM; in the assay on UACC-62 melanoma, greater than 62.3 µM.
`OCCOCn1cc(Cn2ncc3c(SCc4ccccc4)ncnc32)nn1`: the TGI in the assay with HL-60(TB) leukemia is 45.1 µM; in the assay with HOP-62 NSCLC it was greater than 100 µM; in the assay on KM12 colon, greater than 100 µM; in the assay on OVCAR-4 ovarian it was greater than 100 µM; with SF-268 CNS, greater than 100 µM; with SK-MEL-5 melanoma it was greater than 100 µM. The TGI in the assay on SK-OV-3 ovarian, in the assay on SNB-19 CNS, in the assay on SNB-75 CNS and with UACC-62 melanoma was greater than 100 µM in each case.
